{
  "source": "patent US12329158B2",
  "about": "“Large-scale methods of uniformly coating packaging surfaces with a volatile antimicrobial to preserve food freshness” (AGROFRESH INC., priority 2013, dated 2025)",
  "key": {"[1]": {"system": "Escherichia coli", "experiment": "In vitro volatile inhibition assay against bacteria (Example 8)", "assay_type": "cell-based", "set-up": "key: 0 = No colonies; 1 = Micro colonies not connected; 2 = Small colonies with some merging; 3 = Large colonies merging together", "conditions": "5.00 mg per disk", "protocol": "For testing activity against bacteria pathogens, 12-Well (7 mL volume per well) microtiter plates are used for the in vitro inhibition assay for volatile antimicrobial compounds. A 3-mL volume of full-strength LB Agar is added to each well. After cooling, 15 μL of Escherichia coli, adjusted to an optical density of 0.02 to 0.035, and further diluted 1/10 is pipetted to the center of the agar and tilted to distribute uniformly. Small Whatman #1 filter disks (Cat. No. 1001-0155) are placed, in duplicate, on the underside of a polyethylene polymerase chain reaction (PCR) plate sealing film. For determination of the minimum inhibitory concentration (MIC), Compound A is diluted in acetone, and 5 mg of compound is added to the disks. The acetone is permitted to evaporate for 5 minutes. The headspace around the Escherichia coli inoculum is then sealed inside the well by the film with the adhering disk containing the fungicide. Plates are inverted, placed over the treated disks and sealed to prevent any of the chemical from flaking from the disk and falling onto the inoculated agar. After 3 days of storage at 4° C., cultures are transferred to 23° C. for an additional 2 days, and then evaluated for colony growth relative to control."}, "[2]": {"system": "M. piriformis", "experiment": "Volatile MIC assay (Example 11)", "assay_type": "cell-based", "conditions": "Mucor piriformis"}, "[3]": {"system": "Escherichia coli", "experiment": "Volatile assay against bacterial pathogens, MBC (Example 12)", "assay_type": "cell-based", "conditions": "E. coli; headspace concentration; 48 hours at 23 C", "protocol": "(§1) 12-Well (6.5 mL volume per well) microtiter plates are used for the in vitro inhibition assay for volatile antimicrobial Compound A against additional bacterial pathogens. A 3-mL volume of Nutrient agar is added to each well and allowed to dry before introducing the pathogen. Escherichia coli, Pectobacterium carotovorum, Xanthomonas axonopodis and Salmonella enterica cell suspensions are adjusted to an optical density of 0.2 to 0.35, and further diluted 1/10, and 15 μL is pipetted to the center of each well and tilted to distribute uniformly. A Whatman #1 filter paper (CAT 1001-0155) is placed on the underside of a polyethylene PCR plate sealing film. […] The films with the treated disks are then applied over the inoculated plates and sealed. Plates are inverted, and incubated at 23° C. for 48 hours. After the incubation period, the bacteria colonies are dislodged in sterile water containing tween 80 (0.001%) and the optical density (OD; 600 nm) is determined. Results are summarized in Table 6, where the headspace concentration required to control at least 80% of bacterial growth is reported."}, "[4]": {"system": "Pectobacterium carotovorum", "experiment": "Volatile assay against bacterial pathogens, MBC (Example 12)", "assay_type": "cell-based", "conditions": "P. carotovorum; headspace concentration; 48 hours at 23 C", "protocol": "as §1"}, "[5]": {"system": "Salmonella enterica", "experiment": "Volatile assay against bacterial pathogens, MBC (Example 12)", "assay_type": "cell-based", "conditions": "S. enterica; headspace concentration; 48 hours at 23 C", "protocol": "as §1"}, "[6]": {"system": "Xanthomonas axonopodis", "experiment": "Volatile assay against bacterial pathogens, MBC (Example 12)", "assay_type": "cell-based", "conditions": "X. axonopodis; headspace concentration; 48 hours at 23 C", "protocol": "as §1"}, "[7]": {"system": "Botrytis cinerea", "experiment": "Volatile release from different materials, MIC (Example 13)", "assay_type": "cell-based", "protocol": "An in vitro assay is used to evaluate the ability of Compound A to volatilize from different materials and control fungal growth. […] A 3-mL volume of full-strength Potato Dextrose Agar (PDA) is added to each well. […] Plates are inoculated immediately prior to volatile fungicide treatment. The various materials are placed, in duplicate, on the underside of a polyethylene PCR plate sealing film. […] The acetone is permitted to evaporate for five minutes. The headspace around the Botrytis cinerea inoculum is then sealed inside the well by the film with the adhering disk of material containing the fungicide. Plates are inverted, placed over the treated disks and sealed to prevent any of the chemical from flaking from the disk and falling onto the inoculated agar. After three days of storage at 23° C., the cultures are evaluated for percent growth relative to control based on measurement of fungal colony diameter."}, "[8]": {"system": "Penicillium expansum", "experiment": "Blue mold on apple, contact assay", "assay_type": "in vivo", "protocol": "Contact Assay: […] A 250 mL solution of each concentration is used to dip two inoculated apples, one minute per apple, performed in triplicate per rate. The dipped fruits are then placed back into the […] are then placed in a secondary container and incubated at 1° C. for 5 days. After incubation, fruits are evaluated for diameter (mm) of rot development (browning) up to 7 days at 21° C."}, "[9]": {"system": "Aspergillus brasiliensis", "experiment": "Headspace treatment of inoculated grains (Example 28)", "assay_type": "in vivo", "conditions": "for Fungal growth on PDA (mm): 10 mg/L headspace", "protocol": "An in vivo assay is used to evaluate the ability of Compound A (1-hydroxy-5-fluoro-1, 3-dihydro-2, 1-benzoxaborole) to control fungal growth of seeds.\nGrains consisting of corn, wheat, rice, rye, millet and barley are surface sterilized with 0.825% NaOCl for 1 minute and rinsed thrice with sterile distilled water. The grains are inoculated by soaking them in a 1×10^6 spores/mL suspension of Aspergillus brasiliensis for 1 minute. The excess inoculum is blotted out with a sterile paper towel before plating five seeds in a Petri plate containing 25 mL of PDA. For determination of efficacy, Compound A is diluted in acetone and added to 42.5 mm Whatman #1 filter disks (Cat. No. 1001-042) attached to the inner side of the lid in a dose dependent manner to achieve a final headspace concentration of 0.4, 2, or 10 mg/L. The acetone is permitted to evaporate for five minutes before closing plate and sealing it with parafilm. The plates are incubated at 23° C. for three days."}},
  "data": [
    {"smiles": "OB1OCc2cc(F)ccc21", "note": "[Compound A, 5-fluoro-1,3-dihydro-1-hydroxy-2,1-benzoxaborole]", "values": [
      {"measurement": "Colony Rating", "setting": "[1]", "result": 1},
      {"measurement": "MIC", "setting": "[2]", "result": 1.1, "unit": "µg/mL"},
      {"measurement": "Rate (mg/L) offering at least 80% control", "setting": "[3]", "result": 35.7, "unit": "mg/L"},
      {"measurement": "Rate (mg/L) offering at least 80% control", "setting": "[4]", "result": 2.2, "unit": "mg/L"},
      {"measurement": "Rate (mg/L) offering at least 80% control", "setting": "[5]", "result": 17.9, "unit": "mg/L"},
      {"measurement": "Rate (mg/L) offering at least 80% control", "setting": "[6]", "result": 4.5, "unit": "mg/L"},
      {"measurement": "MIC", "setting": "[7]; volatile release from Acrylic-Coated Fiberglass", "result": 0.56, "unit": "µg/mL"},
      {"measurement": "MIC", "setting": "[7]; volatile release from Aramid", "result": 2.2, "unit": "µg/mL"},
      {"measurement": "MIC", "setting": "[7]; volatile release from Aramid and Fiberglass", "result": 0.56, "unit": "µg/mL"},
      {"measurement": "MIC", "setting": "[7]; volatile release from Cardboard", "result": 2.2, "unit": "µg/mL"},
      {"measurement": "MIC", "setting": "[7]; volatile release from Cellulose", "result": 0.56, "unit": "µg/mL"},
      {"measurement": "MIC", "setting": "[7]; volatile release from Fiberglass", "result": 0.56, "unit": "µg/mL"},
      {"measurement": "MIC", "setting": "[7]; volatile release from PTFE", "result": 1.1, "unit": "µg/mL"},
      {"measurement": "MIC", "setting": "[7]; volatile release from PTFE-Coated Fiberglass", "result": 0.56, "unit": "µg/mL"},
      {"measurement": "MIC", "setting": "[7]; volatile release from Polyethylene PCR Film", "result": 0.28, "unit": "µg/mL"},
      {"measurement": "MIC", "setting": "[7]; volatile release from Silica", "result": 0.56, "unit": "µg/mL"},
      {"measurement": "MIC", "setting": "[7]; volatile release from Silicone-Coated Fiberglass", "result": 0.56, "unit": "µg/mL"},
      {"measurement": "MIC", "setting": "[7]; volatile release from Vinyl-Coated Polyester", "result": 0.56, "unit": "µg/mL"},
      {"measurement": "Browning Rot (diameter; mm)", "setting": "[8]; 2 mg/L, Day 0", "result": 0.0, "unit": "mm"},
      {"measurement": "Browning Rot (diameter; mm)", "setting": "[8]; 2 mg/L, Day 2", "result": 3.7, "unit": "mm"},
      {"measurement": "Browning Rot (diameter; mm)", "setting": "[8]; 2 mg/L, Day 4", "result": 15.5, "unit": "mm"},
      {"measurement": "Browning Rot (diameter; mm)", "setting": "[8]; 2 mg/L, Day 7", "result": 23.3, "unit": "mm"},
      {"measurement": "Browning Rot (diameter; mm)", "setting": "[8]; 10 mg/L, Day 0", "result": 0.0, "unit": "mm"},
      {"measurement": "Browning Rot (diameter; mm)", "setting": "[8]; 10 mg/L, Day 2", "result": 2.2, "unit": "mm"},
      {"measurement": "Browning Rot (diameter; mm)", "setting": "[8]; 10 mg/L, Day 4", "result": 8.0, "unit": "mm"},
      {"measurement": "Browning Rot (diameter; mm)", "setting": "[8]; 10 mg/L, Day 7", "result": 20.2, "unit": "mm"},
      {"measurement": "Browning Rot (diameter; mm)", "setting": "[8]; 50 mg/L, Day 0", "result": 0.0, "unit": "mm"},
      {"measurement": "Browning Rot (diameter; mm)", "setting": "[8]; 50 mg/L, Day 2", "result": 0.7, "unit": "mm"},
      {"measurement": "Browning Rot (diameter; mm)", "setting": "[8]; 50 mg/L, Day 4", "result": 5.7, "unit": "mm"},
      {"measurement": "Browning Rot (diameter; mm)", "setting": "[8]; 50 mg/L, Day 7", "result": 15.0, "unit": "mm"},
      {"measurement": "Browning Rot (diameter; mm)", "setting": "[8]; 250 mg/L, Day 0", "result": 0.0, "unit": "mm"},
      {"measurement": "Browning Rot (diameter; mm)", "setting": "[8]; 250 mg/L, Day 2", "result": 0.0, "unit": "mm"},
      {"measurement": "Browning Rot (diameter; mm)", "setting": "[8]; 250 mg/L, Day 4", "result": 4.3, "unit": "mm"},
      {"measurement": "Browning Rot (diameter; mm)", "setting": "[8]; 250 mg/L, Day 7", "result": 11.8, "unit": "mm"},
      {"measurement": "Fungal growth on PDA (mm)", "setting": "[9]; Barley", "result": 0, "unit": "mm"},
      {"measurement": "Fungal growth on PDA (mm)", "setting": "[9]; Corn Dry", "result": 0, "unit": "mm"},
      {"measurement": "Fungal growth on PDA (mm)", "setting": "[9]; Millet", "result": 0, "unit": "mm"},
      {"measurement": "Fungal growth on PDA (mm)", "setting": "[9]; Rice", "result": 0, "unit": "mm"},
      {"measurement": "Fungal growth on PDA (mm)", "setting": "[9]; Rye", "result": 0, "unit": "mm"},
      {"measurement": "Fungal growth on PDA (mm)", "setting": "[9]; Wheat", "result": 0, "unit": "mm"},
      {"measurement": "control of Aspergillus brasiliensis", "setting": "[9]; grains, headspace treatment", "result": 100, "unit": "%"}
    ]}
  ]
}
